# From patent US6017919A, “Compounds and pharmaceutical use thereof” (Japan Tobacco Inc., priority 1996, dated 2000)
# System: anti-thy-1 antibody-induced nephritis
# Assay: Anti-thy-1 antibody-induced nephritis model
# Assay type: in vivo, male Wistar rats
# Conditions: for Nuclear cell count in nephritic glomerulus / Urinary protein: oral, once a day until day 6, rats
# Protocol: [IV] Anti-thy-1 antlbody-induced nephritis model (in vivo)
# The test compound (prednisolone, compound of Example 7-35) was orally administered to male Wistar rats (6 weeks old), and one hour later, an anti-thy-1 antibody (ox-7, 0.938 mg/ml) was administered at 0.1 ml/rat from the tail vein. The test compound was administered once a day thereafter until day 6. At day 6, the rats were forcibly loaded with 8 ml of tap water and then deprived of water for consecutive 16 hours, during which period urine samples were taken from the rats. At day 7, the rats were killed by exsanguination. The kidney was removed, weighed and fixed with formalin, and tissue samples (PAS stained) were prepared therefrom. Evaluation was done by measuring urinary protein and nuclear cell count in nephritic glomerulus section. The test compound was prepared into a suspension with 0.5% HPMC and administered at 10 ml/kg per dose.
# Sham no administration of anti-thy-1 antibody,
# loaded with water and orally administered
# Control administration of anti-thy-1 antibody,
# Prednisolone administration of anti-thy-1 antibody,
# Compound of Ex. 7-35 with said test compound
Structure (SMILES),Nuclear cell count in nephritic glomerulus (0.1 mg/kg) [nuclei/glomerulus],Urinary protein (0.1 mg/kg) [mg/16 hr],"suppressive effect on increase in nuclear cell count in nephritic glomerulus (0.1 mg/kg, result in words)","suppressive effect on increase in urinary protein (0.1 mg/kg, result in words)",Nuclear cell count in nephritic glomerulus (3 mg/kg) [nuclei/glomerulus],Urinary protein (3 mg/kg) [mg/16 hr]
"CCCCCOc1ccc2c(c1OCCCCC)CN(CCc1ccc(N)cc1)C2=O.Cl [Example 7-35, 2-[2-(4-aminophenyl)ethyl]-4,5-bispentyloxy-2,3-dihydroisoindol-1-one hydrochloride]",84.8 ± 1.2,15.2 ± 2.4,significant suppressive effect,significant suppressive effect,,
"C[C@]12C=CC(=O)C=C1CC[C@@H]1[C@@H]2[C@@H](O)C[C@@]2(C)[C@H]1CC[C@]2(O)C(=O)CO [Prednisolone, prednisolone, reference compound]",,,,,76.9 ± 0.9,20.9 ± 2.7
